Results published in patent US12384771B2, “Pleuromutilin derivative containing thiazole-pyridine benzyl quaternary ammonium salt side chain and preparation method and use thereof” (SHAANXI UNIVERSITY OF SCIENCE AND TECHNOLOGY, priority 2022, dated 2025).
In brackets after ≈: the same amount, converted by molar mass. Where a name gives a salt, the structure may show the parent alone. Read-outs that look alike come from different tables or passages of the source.

Columns and labels:
Assay in all cases: MIC, microbroth dilution, standard strains
Type in all cases: cell-based
[1] = test system: Acinetobacter baumannii ATCC 19606
Procedure: (§1) The minimum inhibitory concentration (MIC) of the pleuromutilin derivative containing thiazole-pyridine benzyl quaternary ammonium salt side chain was tested with moxifloxacin as a positive control (purchased from Shanghai Macklin Biochemical Technology Co., Ltd.) using a microbroth dilution method.
(§2) Standard strains include gram-positive bacteria: Staphylococcus epidermidis ATCC 12228, Staphylococcus aureus ATCC 29213, ATCC 25923 and methicillin-resistant Staphylococcus aureus ATCC 33591; gram-negative bacteria: Salmonella ATCC 14028, Acinetobacter baumannii ATCC 19606, Escherichia coli ATCC 25922 and CMCC 44103, all the strains were purchased from the American Type Culture Collection.

[2] = test system: Staphylococcus aureus ATCC 25923
Procedure: as §1, §2

[3] = test system: Escherichia coli CMCC 44103
Procedure: as §1, §2

[4] = test system: methicillin-resistant Staphylococcus aureus ATCC 33591
Procedure: as §1, §2

[5] = test system: Escherichia coli ATCC 25922
Procedure: as §1, §2

[6] = test system: Staphylococcus epidermidis ATCC 12228
Procedure: as §1, §2

[7] = test system: Salmonella ATCC 14028
Procedure: as §1, §2

[8] = test system: Staphylococcus aureus ATCC 29213
Procedure: as §1, §2

[9] = ATCC19606, read-out: Minimum inhibitory concentration
[10] = ATCC25923, read-out: Minimum inhibitory concentration
[11] = CMCC44103, read-out: Minimum inhibitory concentration
[12] = ATCC33591, read-out: Minimum inhibitory concentration
[13] = ATCC25922, read-out: Minimum inhibitory concentration
[14] = ATCC12228, read-out: Minimum inhibitory concentration
[15] = ATCC14028, read-out: Minimum inhibitory concentration
[16] = ATCC29213, read-out: Minimum inhibitory concentration
[17] = ATCC19606, ATCC 19606, read-out: Minimum inhibitory concentration
[18] = ATCC25923, ATCC 25923, read-out: Minimum inhibitory concentration
[19] = CMCC44103, CMCC 44103, read-out: Minimum inhibitory concentration
[20] = ATCC33591, ATCC 33591, read-out: Minimum inhibitory concentration
[21] = ATCC25922, ATCC 25922, read-out: Minimum inhibitory concentration
[22] = ATCC12228, ATCC 12228, read-out: Minimum inhibitory concentration
[23] = ATCC14028, ATCC 14028, read-out: Minimum inhibitory concentration
[24] = ATCC29213, ATCC 29213, read-out: Minimum inhibitory concentration

Row | Compound | MIC [1, 9] [µg/mL] | MIC [2, 10] [µg/mL] | MIC [3, 11] [µg/mL] | MIC [4, 12] [µg/mL] | MIC [5, 13] [µg/mL] | MIC [6, 14] [µg/mL] | MIC [7, 15] [µg/mL] | MIC [8, 16] [µg/mL] | MIC [1, 17] [µg/mL] | MIC [2, 18] [µg/mL] | MIC [3, 19] [µg/mL] | MIC [4, 20] [µg/mL] | MIC [5, 21] [µg/mL] | MIC [6, 22] [µg/mL] | MIC [7, 23] [µg/mL] | MIC [8, 24] [µg/mL]
1 | C=C[C@]1(C)C[C@@H](OC(=O)CSc2nc(-c3cc[n+](Cc4ccc(C#N)cc4)cc3)cs2)[C@]2(C)[C@H](C)CC[C@]3(CCC(=O)[C@H]32)[C@@H](C)[C@@H]1O [Compound 8, 1-(4-(cyano)benzyl)-4-(2-(8-hydroxy-4,7,9,12-tetramethyl-3-oxo-7-vinyldecahydro-4,9a-propancyclopent[8]cyclen-5-yl)oxy)-2-oxoethyl)thiazol-4-yl)pyridyl bromide salt] | 32 | 1 | 8 | 64 | 2 | 8 | 32 | 0.125 |  |  |  |  |  |  |  | 
2 | C=C[C@]1(C)C[C@@H](OC(=O)CSC(C)(C)CNC(=O)[C@H](N)C(C)C)[C@]2(C)[C@H](C)CC[C@]3(CCC(=O)[C@H]32)[C@@H](C)[C@@H]1O [Valnemulin, valnemulin, reference compound] | 2 (≈ 3.54 µM) | 4 (≈ 7.08 µM) | 64 (≈ 113 µM) | > 128 | 16 (≈ 28.3 µM) | 64 (≈ 113 µM) | 64 (≈ 113 µM) | 2 (≈ 3.54 µM) |  |  |  |  |  |  |  | 
3 | C=C[C@]1(C)C[C@@H](OC(=O)CSc2nc(-c3cc[n+](Cc4ccc(C(F)(F)F)cc4)cc3)cs2)[C@]2(C)[C@H](C)CC[C@]3(CCC(=O)[C@H]32)[C@@H](C)[C@@H]1O [Compound 3, 1-(4-(trifluoromethyl)benzyl)-4-(2-(8-hydroxy-4,7,9,12-tetramethyl-3-oxo-7-vinyldecahydro-4,9a-propancyclopent[8]cyclen-5-yl)oxy)-2-oxoethyl)thiazol-4-yl)pyridyl bromide salt] |  |  |  |  |  |  |  |  | 2 | 1 | 2 | 2 | 1 | 1 | 2 | 0.25
4 | C=C[C@]1(C)C[C@@H](OC(=O)CSc2nc(-c3cc[n+](Cc4ccc(OC(F)(F)F)cc4)cc3)cs2)[C@]2(C)[C@H](C)CC[C@]3(CCC(=O)[C@H]32)[C@@H](C)[C@@H]1O [Compound 5, 1-(4-(trifluoromethoxy)benzyl)-4-(2-(8-hydroxy-4,7,9,12-tetramethyl-3-oxo-7-vinyldecahydro-4,9a-propancyclopent[8]cyclen-5-yl)oxy)-2-oxoethyl)thiazol-4-yl)pyridyl bromide salt] |  |  |  |  |  |  |  |  | 8 | 32 | 32 | 2 | 2 | 2 | 4 | 2
5 | C=C[C@]1(C)C[C@@H](OC(=O)CSc2nc(-c3cc[n+](Cc4ccc(Cl)cc4)cc3)cs2)[C@]2(C)[C@H](C)CC[C@]3(CCC(=O)[C@H]32)[C@@H](C)[C@@H]1O [Compound 10, 1-(4-chlorobenzyl)-4-(2-(8-hydroxy-4,7,9,12-tetramethyl-3-oxo-7-vinyldecahydro-4,9a-propancyclopent[8]cyclen-5-yl)oxy)-2-oxoethyl)thiazol-4-yl)pyridyl bromide salt] |  |  |  |  |  |  |  |  | 2 | 2 | 1 | 2 | 0.5 | 2 | 2 | 0.125
6 | C=C[C@]1(C)C[C@@H](OC(=O)CSc2nc(-c3cc[n+](Cc4ccccc4)cc3)cs2)[C@]2(C)[C@H](C)CC[C@]3(CCC(=O)[C@H]32)[C@@H](C)[C@@H]1O [Compound 1, 1-Benzyl-4-(2-(((8-hydroxy-4,7,9,12-tetramethyl-3-oxy-7-vinyldecahydro-4,9a-propanecyclopenta[8]cyclen-5-yl)oxy)-2-oxoethyl)thiothiazol-4-yl)pyridyl bromide salt] | 4 | 0.5 | 0.25 | 1 |  | 2 |  | 0.125 |  |  |  |  |  |  |  | 
7 | C=C[C@]1(C)C[C@@H](OC(=O)CSc2nc(-c3cc[n+](Cc4ccc(-c5ccccc5)cc4)cc3)cs2)[C@]2(C)[C@H](C)CC[C@]3(CCC(=O)[C@H]32)[C@@H](C)[C@@H]1O [Compound 12, 1-([1,1′-biphenyl]-4-ylmethyl)-4-(2-(8-hydroxy-4,7,9,12-tetramethyl-3-oxo-7-vinyldecahydro-4,9a-propancyclopent[8]cyclen-5-yl)oxy)-2-oxoethyl)thiazol-4-yl)pyridyl bromide salt] |  |  |  |  |  |  |  |  | 2 | 1 | 1 | 2 | 1 | 2 | 2 | 0.5
8 | C=C[C@]1(C)C[C@@H](OC(=O)CSc2nc(-c3cc[n+](Cc4cc(F)cc(F)c4)cc3)cs2)[C@]2(C)[C@H](C)CC[C@]3(CCC(=O)[C@H]32)[C@@H](C)[C@@H]1O [Compound 15, 1-(3,5-difluorobenzyl)-4-(2-(8-hydroxy-4,7,9,12-tetramethyl-3-oxo-7-vinyldecahydro-4,9a-propancyclopent[8]cyclen-5-yl)oxy)-2-oxoethyl)thiazol-4-yl)pyridyl bromide salt] |  |  |  |  |  |  |  |  | 8 | 128 | 32 | 64 | 16 | 32 | 16 | 64
9 | C=C[C@]1(C)C[C@@H](OC(=O)CSc2nc(-c3cc[n+](Cc4cc(OC)cc(OC)c4)cc3)cs2)[C@]2(C)[C@H](C)CC[C@]3(CCC(=O)[C@H]32)[C@@H](C)[C@@H]1O [Compound 14, 1-(3,5-dimethoxybenzyl)-4-(2-(8-hydroxy-4,7,9,12-tetramethyl-3-oxo-7-vinyldecahydro-4,9a-propancyclopent[8]cyclen-5-yl)oxy)-2-oxoethyl)thiazol-4-yl)pyridyl bromide salt] |  |  |  |  |  |  |  |  | 8 | 64 | 8 | 64 | 32 | 64 | 16 | 128
10 | C=C[C@]1(C)C[C@@H](OC(=O)CSc2nc(-c3cc[n+](Cc4cc(C)cc(C)c4)cc3)cs2)[C@]2(C)[C@H](C)CC[C@]3(CCC(=O)[C@H]32)[C@@H](C)[C@@H]1O [Compound 13, 1-(3,5-dimethylbenzyl)-4-(2-(8-hydroxy-4,7,9,12-tetramethyl-3-oxo-7-vinyldecahydro-4,9a-propancyclopent[8]cyclen-5-yl)oxy)-2-oxoethyl)thiazol-4-yl)pyridyl bromide salt] |  |  |  |  |  |  |  |  | 8 | 64 | 32 | 64 | 32 | 128 | 16 | 128
11 | C=C[C@]1(C)C[C@@H](OC(=O)CSc2nc(-c3cc[n+](Cc4ccc(F)cc4)cc3)cs2)[C@]2(C)[C@H](C)CC[C@]3(CCC(=O)[C@H]32)[C@@H](C)[C@@H]1O [Compound 9, 1-(4-fluorobenzyl)-4-(2-(8-hydroxy-4,7,9,12-tetramethyl-3-oxo-7-vinyldecahydro-4,9a-propancyclopent[8]cyclen-5-yl)oxy)-2-oxoethyl)thiazol-4-yl)pyridyl bromide salt] |  |  |  |  |  |  |  |  | 16 | 1 | 1 | 2 | 2 | 2 | 1 | 1
